Assay results published in US11447534B2, “Peptide complex with immunodulatory and anti-inflammatory function” (NATIONAL INSTITUTE OF IMMUNOLOGY, priority 2018, dated 2022).

Columns and labels:
[1] = test system: carrageenan induced paw edema; test: Carrageenan induced paw inflammation in mice; assay type: in vivo, mouse
Description: The effect of A-O complex was tested under in vivo conditions. Carrageenan, an inflammation inducing agent was injected into the hind foot pad of mouse to induce acute inflammation. The edema attains peak at around 3 hours post carrageenan challenge. This is a convenient model to assess the anti-inflammatory potency of test drugs to reduce or prevent the development of swelling. The protocol followed herein is as per Morris (2003) [Morris C J, 2003, Carrageenan induced paw edema in rat and mouse. In: Winyard P. G., Willoughby D. A. (eds) Inflammation Protocols. Methods in Molecular Biology, Vol 225. Humana Press. Pp 115-121].
Preparation of carrageenan: To prepare 0.5% of carrageenan solution, 50 mg of lamda-carrageenan ([…], Sigma Chemical Co., St. Louis, Mo., USA) was slowly added onto a small beaker containing 10 ml of normal saline. The powder was allowed to swell for some time and then slightly heated (not boiled) to dissolve the carrageenan. The solution was stirred during the heating. Once dissolved, the solution was cooled and aliquoted and stored at 4 degree Celsius.
Method: For experiment, the mice were acclimatized in cages under standard light and temperature settings with access to food and water ad libitum. Mice were acclimatized for 1 week in respective cages to minimize stress. At the day of experiment, mice were placed in a temporary animal restraint and 50 microlitre of carrageenan solution was administered by intraplantar injection to the right hind paw of each mouse. The left paw served as control and was administered 50 microlitre of normal saline.
To determine the efficacy of A-O complex different concentrations of complex viz. 5, 20 and 50 microgram per 100 g body weight of mice were administered intraperitoneally 1 hour before carrageenan challenge. Ibuprofen (100 mg/kg, Sigma Chemical Co., St. Louis, Mo., USA) served as positive control for the experiment. Paw size was measured by wrapping a piece of cotton thread round the paw of each […] and recording the length of the thread, the paw circumference, by use of a metric ruler. Paws were measured immediately before and at specified time points after carrageenan injection. Inhibitory activity was calculated at 1-5 h after carrageenan injection with the following formula: % Inhibition=[(Ct−C0)control−(Ct−C0)treated]/(Ct−C0)control×100, where Ct is paw size after carrageenan injection and C0 is paw size before carrageenan injection.

[2] = test system: carrageenan challenged mice; test: Carrageenan induced nitrite production in serum (Griess reaction); assay type: in vivo, mouse; conditions: 50 microgram of A-O complex, 3rd hour post carrageenan challenge
Description: Measurement of nitric oxide in serum: Nitric oxide concentration in serum of carrageenan challenged mice with or without treatment was determined by the Griess reaction as an indicator of nitric oxide production as previously reported by Prado (2002) [Prado W A, Schiavon V F, Cunha F Q. Dual effect of local application of nitric oxide donors in a model of incision pain in rats. Eur J Pharmacol. 2002; 441:57-65]. Briefly, 100 microlitre of sera and 100 microlitre of Griess reagent (mix of 2% sulphanilamide in 5% phosphoric acid and 0.2% N(1-naphthyl) ethylenediamine hydrochloride) were mixed in 96-well ELISA plate and Absorbance was read at 550 nm. The concentration of nitrite was determined using a standard curve of sodium nitrite.

macrophages = test: Uptake of fluorescent CD36 ligands by macrophages (FACS); assay type: cell-based, murine; conditions: macrophages pre-treated half an hour, ligand 1 hour
Description: Briefly, 50 μl of 100 μM Abeta was pH adjusted to pH 9 with 5 microlitre of 1 M NaHCO3, followed by addition of 4 microlitre of the H2O solubilized reactive dye. Incubation at room temperature (˜22° C.) was performed for 15 min followed by immediate addition of 55 microlitre of the labeling reaction mixture onto a spin column packed with a 425 microlitre slurry of Biogel P-6 resin for removal of unincorporated dye. The resulting eluent (pH 7.4) was stored for up to 2 days at 4° C. or used immediately for cellular uptake experiments. Both ligands were exposed after pre-treatment of cells with A-O complex for half an hour. The ligands were exposed to cell cultures for 1 hour after which cells were either quenched with trypan blue (0.2%) or given acid wash.

EOC20 microglial cells = test: F-actin confocal microscopy of unstimulated EOC20 microglia; assay type: cell-based; conditions: serum starved, 1 hour
Method: To determine the morphological changes in microglia upon exposure to A-O complex, F-actin confocal microscopy was performed. For that poly-L-lysine coated coverslips were placed in the 24 well culture dishes containing 1 ml of complete media and cells were seeded over the cover slips. […] Post treatment, the cell culture media was then removed and cells were washed thrice with 1×PBS (pH 7.4). Cells were fixed in 4% PFA for 10 min at room temperature and then washed thrice with 1×PBS (pH 7.4). Cells were then exposed to Phalloidin-actin (F-actin) antibody for 20 min in the dark. Thereafter, cells were washed twice with 1×PBS (pH7.4) and mounted using DAPI Fluormount (Invitrogen, Carlsbad, Calif., USA). Cells were imaged on a Zeiss LSM510 META laser-scanning confocal microscope. A PlanApochromat 63/1.4 oil-immersion DIC M27 objective (Zeiss) was used for image acquisition. [Concentration of Phalloidin-actin antibody: 300 U of Phalloidin-actin (Invitrogen, Carlsbad, USA) was dissolved in 1.5 ml methanol to yield a concentration of 200 U/ml or 6.6 μM. 1 U of phalloidin is equal to 5 μl of methanolic stock].

CD36 scavenger receptor = test: Flow cytometry of cell surface CD36 in macrophages; assay type: cell-based, murine; conditions: 1 hour exposure, FACS
Description: To determine the immunomodulatory effect of A-O complex, serum starved macrophages were exposed to the complex. Macrophages (1×10^6 cells) were serum starved for 30 min after which cells were exposed to A-O complex. After 1 hour, cells were washed with 1×PBS (pH 7.4) and harvested using cell dissociation solution. Then the cells were suspended in ice cold staining buffer (100 μl) and centrifuged at 1000 rpm for 5 min at 4° C. The cells were resuspended in 100 μl ice cold staining buffer for 10 min at 2-8° C. and pellet resuspended in 50 μl staining media. To this 2 μl of Fc block or anti-mouse CD16/CD32 was added for 10 mins and washed with staining buffer. The cells were resuspended in 50 μl of staining buffer and incubated with fluorescent-tagged CD36 antibody (e-biosciences) for 25-30 min on ice. The excess stain was removed by washing and pelleting down using staining buffer thrice by spinning and removal of staining buffer. The cell suspension was fixed 1:1 ratio (staining buffer:fixative) and analysed within 48 h in ARIA3 DIVA software version 6.1. Further, expression of MHC-II, and CD-36, was also determined in the microglial cells via qPCR. […] Following amplification, fold changes in gene expression versus β-actin (reference) analysis was determined using the 2^ΔΔCT(Livak) method.

Substance: A-O complex: peptide complex of 100 μM Abeta1-42 (SEQ ID NO: 1) and 3 ng Glu-OC (SEQ ID NO: 2), incubated at 37° C. for 4 hours
- reduction in paw edema ([1]; 5 microgram per 100 g body weight i.p. 1 hour before carrageenan, first value (1 hour)): 25%
- reduction in paw edema ([1]; 5 microgram per 100 g body weight i.p., second value (3rd hour)): 48%
- reduction in paw edema ([1]; 5 microgram per 100 g body weight i.p., third value (5th hour)): 58%
- reduction in paw edema ([1]; 20 microgram per 100 g body weight i.p., first value (1 hour)): 30%
- reduction in paw edema ([1]; 20 microgram per 100 g body weight i.p., second value (3rd hour)): 60%
- reduction in paw edema ([1]; 20 microgram per 100 g body weight i.p., third value (5th hour)): 65%
- reduction in paw edema ([1]; 50 microgram per 100 g body weight i.p., first value (1 hour)): 30%
- reduction in paw edema ([1]; 50 microgram per 100 g body weight i.p., second value (3rd hour)): 57%
- reduction in paw edema ([1]; 50 microgram per 100 g body weight i.p., third value (5th hour)): 65%
- serum nitrite level [2]: maximal efficiency to reduce serum nitrite level
- uptake of mutant Abeta42 (mutant Aβ) (macrophages): facilitates the uptake
- uptake of oxidized-lipoprotein (oxLDL) (macrophages): facilitates the uptake
- microglia morphology (F-actin) (EOC20 microglial cells): rounded morphology with projections indicative of activation
- cell surface protein expression of CD36 receptor (CD36 scavenger receptor): increased cell surface protein expression
